These compounds were tested against human GPR119 (Homo sapiens (Human), UniProt Q8TDV5) (assay: AlphaScreen cAMP assay in Min-6/hGPR119 cells (GPR119 activation, intracellular cAMP)). Conditions: MIN6 cells stably transfected with human GPR119; 45 minutes' incubation at RT; AlphaScreen cAMP Assay Kit.
Type: cell-based
Description: The compounds of formula I according to the invention are GPR119 agonists. The effect of the compounds on the activation of GPR119 and on the stimulation of intracellular cAMP concentration is determined using the AlphaScreen cAMP Assay Kit (Cat. No. #6760625R) made by PerkinElmer.
MIN6 cells [Miyazaki J et al. Endocrinology. 1990 July; 127(1):126-32] were stably transfected with an expression vector for human GPR119 cDNA (Acc. No. NP_848566). Min-6/hGPR119 cells are cultured in DMEM, 10% FBS, 50 μM β-mercaptoethanol, 0.3 mg/mL Geniticin, 2 mM GlutaMAX at 37° C. 5% CO2. For the assay, the cells are placed in Optiplates (white, 384-well, 160W-barcoded, TC, sterile with lid, Cat. No. #6007688 (Perkin Elmer); 10000 cells/well; 50 μl). The plates covered with lids are then incubated for 24 hours at 37° C./5% CO2.
After the medium has been sucked out of the wells completely, 10 μl of the test compound are added, the compounds are diluted beforehand with stimulating buffer (140 mM NaCl, 3.6 mM KCl, 0.5 mM NaH2PO4, 0.5 mM MgSO4, 1.5 mM CaCl2, 10 mM Hepes, 5 mM NaHCO3; pH 7.4. 0.5 mM IBMX and 0.1% BSA, the final DMSO concentration is 1%). After 45 minutes' incubation at RT, the cAMP concentrations are determined using the AlphaScreen cAMP Assay Kit (Cat. No. #6760625R from PerkinElmer).

human GPR119, sequence (Q8TDV5 whole entry): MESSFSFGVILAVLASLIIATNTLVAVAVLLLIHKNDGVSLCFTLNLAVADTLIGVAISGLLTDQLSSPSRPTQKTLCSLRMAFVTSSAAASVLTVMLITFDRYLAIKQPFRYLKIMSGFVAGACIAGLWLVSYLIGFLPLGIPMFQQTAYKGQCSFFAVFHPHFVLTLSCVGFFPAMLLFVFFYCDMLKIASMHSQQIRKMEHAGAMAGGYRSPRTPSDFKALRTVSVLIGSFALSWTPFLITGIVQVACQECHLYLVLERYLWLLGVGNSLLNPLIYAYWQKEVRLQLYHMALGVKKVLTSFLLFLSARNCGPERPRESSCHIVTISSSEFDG

Compound | EC50 [nM]
Cc1c(C2=NNC(=O)C3CC23)ccc2nc(-c3ccccc3)oc12 (stereo not drawn) [Example 6, 5-(7-methyl-2-phenyl-benzoxazol-6-yl)-3,4-diaza-bicyclo[4.1.0]hept-4-en-2-one] | 1700
C=CCC1CC(c2ccc3nc(-c4ccccc4)oc3c2)=NNC1=O (stereo not drawn) [Example 7, 4-allyl-6-(2-phenyl-benzoxazol-6-yl)-4,5-dihydro-2H-pyridazin-3-one] | 892
CCCC1CC(c2ccc3nc(-c4ccccc4)oc3c2)=NNC1=O (stereo not drawn) [Example 9, 6-(2-phenyl-benzoxazol-6-yl)-4-propyl-4,5-dihydro-2H-pyridazin-3-one] | 834
Cc1cc(C2=NNC(=O)C3CC23)cc2oc(-c3ccccc3)nc12 (stereo not drawn) [Example 11, 5-(4-methyl-2-phenyl-benzoxazol-6-yl)-3,4-diaza-bicyclo[4.1.0]hept-4-en-2-one] | > 10000
Cc1cccc(-c2nc3ccc(C4=NNC(=O)C5CC45)cc3o2)c1 (stereo not drawn) [Example 12, 5-(2-m-tolyl-benzoxazol-6-yl)-3,4-diaza-bicyclo[4.1.0]hept-4-en-2-one] | 246
Cc1ccc(-c2nc3ccc(C4=NNC(=O)C5CC45)cc3o2)cc1 (stereo not drawn) [Example 13, 5-(2-p-tolyl-benzoxazol-6-yl)-3,4-diaza-bicyclo[4.1.0]hept-4-en-2-one] | 153
Cc1ccc(-c2nc3ccc(C4=NNC(=O)C5CC45)cc3o2)cc1C (stereo not drawn) [Example 14, 5-[2-(3,4-dimethyl-phenyl)-benzoxazol-6-yl]-3,4-diaza-bicyclo[4.1.0]hept-4-en-2-one] | 264
O=C1NN=C(c2ccc3nc(-c4ccc(CN5CCCCC5)cc4)oc3c2)C2CC12 (stereo not drawn) [Example 15, 5-[2-(4-piperidin-1-ylmethyl-phenyl)-benoxazol-6-yl]-3,4-diaza-bicyclo[4.1.0]hept-4-en-2-one] | 701
O=C1NN=C(c2ccc3nc(-c4cccc(F)c4)oc3c2)C2CC12 (stereo not drawn) [Example 17, 5-[2-(3-fluoro-phenyl)-benzoxazol-6-yl]-3,4-diaza-bicyclo[4.1.0]hept-4-en-2-one] | 223
O=C1NN=C(c2ccc3nc(-c4ccc(F)cc4)oc3c2)C2CC12 (stereo not drawn) [Example 18, 5-[2-(4-fluoro-phenyl)-benzoxazol-6-yl]-3,4-diaza-bicyclo[4.1.0]hept-4-en-2-one] | 153
O=C1NN=C(c2ccc3nc(-c4ccc(F)cc4)oc3c2)C2CCC12 (stereo not drawn) [Example 19, 5-[2-(4-fluoro-phenyl)-benzoxazol-6-yl]-3,4-diaza-bicyclo[4.2.0]oct-4-en-2-one] | 469
O=C1NN=C(c2ccc3nc(-c4ccccc4F)oc3c2)C2CC12 (stereo not drawn) [Example 20, 5-[2-(2-fluoro-phenyl)-benzoxazol-6-yl]-3,4-diaza-bicyclo[4.1.0]hept-4-en-2-one] | 157
CC1(C)CC(c2ccc3nc(-c4ccccc4)oc3c2)=NNC1=O [Example 21, 4.4-dimethyl-6-(2-phenyl-benzoxazol-6-yl)-4,5-dihydro-2H-pyridazin-3-one] | > 10000
O=C1NN=C(c2ccc3nc(-c4ccc(CN5CCOCC5)cc4)oc3c2)C2CC12 (stereo not drawn) [Example 22, 5-[2-(4-morpholin-4-ylmethyl-phenyl)-benzoxazol-6-yl]-3,4-diaza-bicyclo[4.1.0]hept-4-en-2-one] | 1750
CC(C)(C)OC(=O)N1CCN(Cc2ccc(-c3nc4ccc(C5=NNC(=O)C6CC56)cc4o3)cc2)CC1 (stereo not drawn) [Example 23, tert.butyl 4-{4-[6-(5-oxo-3,4-diaza-bicyclo[4.1.0]hept-2-en-2-yl)-benzoxazol-2-yl]-benzyl}-piperazine-1-carboxylate] | 1350
Cc1ccc(-c2nc3ccc(C4=NNC(=O)[C@@H](C)[C@H]4C)cc3o2)s1 [Example 24, (4S,5R)-4,5-dimethyl-6-[2-(5-methyl-thiophen-2-yl)-benzoxazol-6-yl]-4,5-dihydro-2H-pyridazin-3-one] | 5100

Second part, the compound after the results:

EC50 [nM] | Compound
660 | C[C@H]1CC(=O)NN=C1c1ccc2nc(-c3ccccc3)oc2c1 [Example 1, (S)-5-methyl-6-(2-phenyl-benzoxazol-6-yl)-4,5-dihydro-2H-pyridazin-3-one]
787 | C[C@H]1CC(c2ccc3nc(-c4ccccc4)oc3c2)=NNC1=O [Example 2, (S)-4-methyl-6-(2-phenyl-benzoxazol-6-yl)-4,5-dihydro-2H-pyridazin-3-one]
82 | C[C@@H]1CC(=O)NN=C1c1ccc2nc(-c3ccccc3)oc2c1 [Example 3, (R)-5-methyl-6-(2-phenyl-benzoxazol-6-yl)-4,5-dihydro-2H-pyridazin-3-one]
596 | C[C@@H]1CC(c2ccc3nc(-c4ccccc4)oc3c2)=NNC1=O [Example 4, (R)-4-methyl-6-(2-phenyl-benzoxazol-6-yl)-4,5-dihydro-2H-pyridazin-3-one]
243 | O=C1NN=C(c2ccc3nc(-c4ccccc4)oc3c2)C2CC12 (stereo not drawn) [Example 5, 5-(2-phenyl-benzoxazol-6-yl)-3,4-diaza-bicyclo[4.1.0]hept-4-en-2-one]
874 | CCCC1CC(=O)NN=C1c1ccc2nc(-c3ccccc3)oc2c1 (stereo not drawn) [Example 8, 6-(2-phenyl-benzoxazol-6-yl)-5-propyl-4,5-dihydro-2H-pyridazin-3-one]
365 | O=C1NN=C(c2ccc3nc(-c4ccccc4)oc3c2)C2CCC12 (stereo not drawn) [Example 10, 5-(2-phenyl-benzoxazol-6-yl)-3,4-diaza-bicyclo[4.2.0]oct-4-en-2-one]
314 | O=C1CCC(c2ccc3nc(-c4ccccc4)oc3c2)=NN1 [Example 16, 6-(2-phenyl-benzoxazol-6-yl)-4,5-dihydro-2H-pyridazin-3-one]
2370 | C[C@@H]1C(c2ccc3nc(-c4ccccc4)oc3c2)=NNC(=O)[C@@H]1C [Example 25, (4R,5S)-4,5-dimethyl-6-(2-phenyl-benzoxazol-6-yl)-4,5-dihydro-2H-pyridazin-3-one]
166 | C[C@@H]1C(=O)NN=C(c2ccc3nc(-c4ccccc4)oc3c2)[C@H]1C [Example 26, (4S,5S)-4,5-dimethyl-6-(2-phenyl-benzoxazol-6-yl)-4,5-dihydro-2H-pyridazin-3-one]
444 | CO[C@@H]1CC(=O)NN=C1c1ccc2nc(-c3ccccc3)oc2c1 [Example 27, (R)-5-methoxy-6-(2-phenyl-benzoxazol-6-yl)-4,5-dihydro-2H-pyridazin-3-one]
213 | CO[C@H]1CC(=O)NN=C1c1ccc2nc(-c3ccccc3)oc2c1 [Example 28, (5S)-5-methoxy-6-(2-phenyl-1,3-benzoxazol-6-yl)-2,3,4,5-tetrahydropyridazin-3-one]
181 | CCC1CC(=O)NN=C1c1ccc2nc(-c3ccccc3)oc2c1 (stereo not drawn) [Example 29, 5-ethyl-6-(2-phenyl-benzoxazol-6-yl)-4,5-dihydro-2H-pyridazin-3-one]
66 | CC[C@@H]1CC(=O)NN=C1c1ccc2nc(-c3ccccc3)oc2c1 [Example 31, (R)-5-ethyl-6-(2-phenyl-benzoxazol-6-yl)-4,5-dihydro-2H-pyridazin-3-one]
869 | CC(C)C1CC(=O)NN=C1c1ccc2nc(-c3ccccc3)oc2c1 (stereo not drawn) [Example 32, 5-isopropyl-6-(2-phenyl-benzoxazol-6-yl)-4,5-dihydro-2H-pyridazin-3-one]
70 | CCC1CC(=O)NN=C1c1ccc2nc(-c3ccc(OCc4ccccc4)cc3)oc2c1 (stereo not drawn) [Example 33, 6-[2-(4-benzyloxy-phenyl)-benzoxazol-6-yl]-5-ethyl-4,5-dihydro-2H-pyridazin-3-one]
193 | CC1CC(=O)NN=C1c1ccc2nc(-c3cccc(OCc4ccccc4)c3)oc2c1 (stereo not drawn) [Example 34, 6-[2-(3-benzyloxy-phenyl)-benzoxazol-6-yl]-5-methyl-4,5-dihydro-2H-pyridazin-3-one]
148 | CCC1CC(=O)NN=C1c1ccc2nc(-c3cccc(OCc4ccccc4)c3)oc2c1 (stereo not drawn) [Example 35, 6-[2-(3-benzyloxy-phenyl)-benzoxazol-6-yl]-5-ethyl-4,5-dihydro-2H-pyridazin-3-one]
58 | CC1CC(=O)NN=C1c1ccc2nc(-c3ccc(OCc4ccccc4)cc3)oc2c1 (stereo not drawn) [Example 36, 6-[2-(4-benzyloxy-phenyl)-benzoxazol-6-yl]-5-methyl-4,5-dihydro-2H-pyridazin-3-one]
636 | CCC1CC(=O)NN=C1c1ccc2nc(-c3ccc(O)cc3)oc2c1 (stereo not drawn) [Example 37, 5-ethyl-6-[2-(4-hydroxy-phenyl)-benzoxazol-6-yl]-4,5-dihydro-2H-pyridazin-3-one]
890 | CC1CC(=O)NN=C1c1ccc2nc(-c3cccc(O)c3)oc2c1 (stereo not drawn) [Example 38, 6-[2-(3-hydroxy-phenyl)-benzoxazol-6-yl]-5-methyl-4,5-dihydro-2H-pyridazin-3-one]
329 | CCC1CC(=O)NN=C1c1ccc2nc(-c3cccc(O)c3)oc2c1 (stereo not drawn) [Example 39, 6-[2-(3-hydroxy-phenyl)-benzoxazol-6-yl]-5-ethyl-4,5-dihydro-2H-pyridazin-3-one]
275 | CCC1CC(=O)NN=C1c1ccc2nc(-c3ccc(OCc4ncccn4)cc3)oc2c1 (stereo not drawn) [Example 40, 5-ethyl-6-{2-[4-(pyrimidin-2-ylmethoxy)-phenyl]-benzoxazol-6-yl}-4,5-dihydro-2H-pyridazin-3-one]
